According to patent publication US20150265682A1, “THERAPEUTIC METHODS AND COMPOSITIONS FOR TREATING DIABETES” (Orient Europharma Co., Ltd., priority 2014, published 2015):

Key:
Assay type in all cases: in vivo, ICR mice
[1] = system: IR, Akt, AS160, GLUT2 and PEPCK in liver of mice with type 1 DM; assay: Western blot of insulin signaling pathway in liver after 7-day borapetoside A; conditions: type 1 DM mice; 10 mgkg^−1 twice a day for 7 days
Method: After three days of acclimatization, the mice had free access to a standard rodent chow (normal mice), a standard rodent chow after single […] streptozotocin (STZ) intraperitoneal injection (T1DM mice), and a fat-rich chow diet and fructose-sweetened water (T2DM mice) for 4 weeks. The induction of Type 1 DM was assessed and confirmed when the mice had plasma glucose levels ≧350 mgdL^−1, accompanied with polyuria, hyperphagia and decreased body weight. The induction Type 2 DM in the mice was assessed by measuring fasting plasma glucose levels and confirmed when plasma glucose level was ≧150 mgdL^−1 after the 4-week induction. The animals were assigned randomly into three groups, with seven animals in each group. In group I, the mice were treated with vehicle, 2% DMSO in normal saline, as the negative control. In group II, the mice were intraperitoneally treated with borapetoside A (0.1-10 mgkg^−1). In group Ill, the positive control, the mice received intraperitoneally metformin (300 mgkg^−1; Sigma Chemical Co., St. Louis, Mo., U.S.A.) or insulin (0.5 IUkg^−1; Insulin Actrapid® HM; Novo Nordisk, Denmark). In the acute study, mice under anesthesia received a single intraperitoneal administration of borapetoside A, negative control, or positive control. In the subacute study, mice received intraperitoneal administrations of borapetoside A, vehicle, or insulin twice a day for seven days.
Western blot analysis was carried out by known methods with a slight modification. Briefly, tissues were homogenized in T-PER® Tissue Protein Extraction Reagent (Pierce Biotechnology, Rockford, Ill.) with Halt™ Protease Inhibitor Single-Use Cocktail (Pierce Biotechnology, Rockford, Ill.). Liver homogenates were prepared by mechanical homogenization (Polytron PT3100, Luzernerstrasse, Switzerland). After centrifuging the homogenates at 10,000 g for 30 minutes, the protein concentrations were determined by using a BCA Protein Assay Kit (Pierce Biotechnology, Rockford, Ill.). Later, 60 μg of protein preparations were applied on 10% sodium dodecyl sulfate-polyacrylamide gel for electrophoresis and then transferred to polyvinylidene difluoride membranes (Millipore, Billerica, Mass.). The membranes were analysed by using the antibodies against phospho-insulin receptor β (IRβ) (Tyr^1345), phospho-Akt (Ser^473), phosphor-AS160 (Thr^642), AS160 (Cell Signaling Technology, Beverly, Mass.), IRβ, Akt, β-Actin (Santa Cruz Biotechnology, Santa Cruz, Calif.), GLUT2 (Abcam, Cambridge, UK), and PEPCK (a gift from Professor DK Granner), respectively. Chemiluminescence detection and image analysis was performed with UVP-Biochimie Bioimager and Lab Works software (UVP, Upland, Calif.). The intensity of each band was quantified with ImageQuant.

[2] = system: soleus muscle of normal, T1DM and T2DM mice; assay: Glycogen content of skeletal muscle (borapetoside C or insulin); conditions: borapetoside C 5 mg/kg i.p., insulin (Actrapid) 0.5 IU/kg i.p.
Method: This study was conducted following the University ethical guidelines on animal experimentation and complied with the Guide for the Care and Use of Laboratory Animals published by the US National Institutes of Health (NIH publication no. 85-23, revised 1996). The animal facility was well controlled for temperature (22±1° C.), and humidity (60±5%) and a 12 h/12 h light-dark cycle was maintained with access to food and water ad libitum. Four-week-old male ICR mice were acquired from BioLasco Taiwan Co., Ltd. and maintained at College of Medicine Experimental Animal Center, National Taiwan University. The study was conducted on 8-10 week-old male ICR mice.
(§1) T1DM mice were induced by a known method. In brief, an intraperitoneal injection of streptozotocin (STZ; Sigma Chemical Co.; St. Louis, Mo.) at 150 mg/kg was performed in mice that were fasted for 48 h. The induction of T1DM was assessed and confirmed when the mice had plasma glucose levels ≧350 mg/dL, accompanied with polyuria, hyperphagia and decreased body weight. The control mice group received an injection of vehicle and then carried out for 4 weeks. T2DM mice were induced by maintaining on a fat-rich chow diet and fructose-sweetened water for 4 weeks from the age of 4-5 weeks according to previous methods. The induction T2DM mice were assessed by measuring fasting plasma glucose levels and confirmed when plasma glucose level was ≧150 mg/dL after a 4-week induction.
(§2) Glycogen content of skeletal muscles was measured by a known method. In brief, mice were injected with borapetoside C (5.0 mg/kg, interperitoneal) for 60 min or insulin (0.5 IU/kg, interperitoneal.) for 30 min, and the soleus muscle was isolated from anesthetized mice. About 40 mg of muscle sample was dissolved in 1 N KOH at 75° C. for 30 min. The dissolved homogenate was neutralized by glacial acetic acid and then incubated overnight in acetate buffer (0.3 M sodium acetate, pH 4.8) containing amyloglucosidase (Sigma, St. Louis, Mo.). The mixture was then neutralized with 1 N NaOH to stop the reaction. The glycogen contents in the tissue samples were determined as μg of glucose per mg of tissue (wet weight).

[3] = system: skeletal muscle of normal, T1DM and T2DM mice; assay: Glycogen content in skeletal muscle after borapetoside C and insulin; conditions: for Glycogen content in skeletal muscle: BoC 0.1 mg/kg i.p. 30 min before insulin, 30 min after insulin injection
Method: as §1, §2
Both non-diabetic and diabetic mice were subjected to various doses of insulin injections at 30 min after intraperitoneal injections with borapetoside C (0.1 mg/kg) or with the vehicle. The glycogen contents in skeletal muscles were then determined at 30 min after insulin injections (Table 4). The ratios of increased glycogen content in the other groups were normalized to those of vehicle-treated group. The ratio was 119.8%, 125.3%, and 108.5% in normal, T1DM, and T2DM mice of insulin-treated group. In borapetoside C combined with insulin-treated group, it was 130.2%, 162.8%, and 122.6% in normal, T1DM, and T2DM mice. […] The increase of insulin sensitivity by borapetoside C is more prominent in diabetic mice than normal mice. Similarly, plasma glucose reduction in mice treated with insulin and borapetoside A are tested and measured.

Compound | PEPCK expression in liver [1] | expression of GLUT2 in liver [1] | phosphorylated AS160 in liver [1] | phosphorylated Akt in liver [1] | phosphorylated IR in liver [1] | Glycogen synthesis in skeletal muscle (glycogen content) ([2]; Normal mice) | Glycogen synthesis in skeletal muscle (glycogen content) ([2]; T1DM mice) | Glycogen synthesis in skeletal muscle (glycogen content) ([2]; T2DM mice) | Glycogen content in skeletal muscle ([3]; Normal mice) | Glycogen content in skeletal muscle ([3]; T1DM mice) | Glycogen content in skeletal muscle ([3]; T2DM mice) | ratio of glycogen content normalized to vehicle-treated group ([3]; T1DM mice) | ratio of glycogen content normalized to vehicle-treated group ([3]; T2DM mice) | ratio of glycogen content normalized to vehicle-treated group ([3]; normal mice)
C[C@@]12C[C@@H](c3ccoc3)OC(=O)[C@@H]1C[C@@H]1OC(=O)[C@@]3(O)[C@@H](O[C@@H]4O[C@H](CO)[C@@H](O)[C@H](O)[C@H]4O)CC[C@@H]2[C@@]13C [Borapetoside A, borapetoside A] | significant decrease | increased | increased | increased | increased |  |  |  |  |  |  |  |  | 
COC(=O)C1=CCC[C@H]2[C@]3(C)C[C@@H](c4ccoc4)OC(=O)[C@@H]3C[C@@H](O[C@@H]3O[C@H](CO)[C@@H](O)[C@H](O)[C@H]3O)[C@@]12C [Borapetoside C, borapetoside C] |  |  |  |  |  | 25.1 ± 1.3 μg of glucose per mg of tissue (wet weight) | 23.2 ± 0.7 μg of glucose per mg of tissue (wet weight) | 23.3 ± 0.4 μg of glucose per mg of tissue (wet weight) | 32.7 ± 0.7 μg of glucose per mg of tissue (wet weight) | 30.0 ± 1.2 μg of glucose per mg of tissue (wet weight) | 30.7 ± 1.3 μg of glucose per mg of tissue (wet weight) |  |  | 
Insulin: human insulin, Insulin Actrapid HM, a short-acting insulin provided by Novo Nordisk [reference compound] |  |  |  |  |  | 30.2 ± 2.0 μg of glucose per mg of tissue (wet weight) | 30.0 ± 1.0 μg of glucose per mg of tissue (wet weight) | 20.2 ± 0.6 μg of glucose per mg of tissue (wet weight) | 38.1 ± 0.3 μg of glucose per mg of tissue (wet weight) | 38.1 ± 2.3 μg of glucose per mg of tissue (wet weight) | 35.5 ± 1.1 μg of glucose per mg of tissue (wet weight) | 125.3% | 108.5% | 119.8%
